From publication PMC8000041, “New Insights into the Metabolism of the Flavanones Eriocitrin and Hesperidin: A Comparative Human Pharmacokinetic Study” (Antioxidants, 2021)
Where two headings read alike, the source gives them in different places.

Tests used:
[1] = Urinary excretion of flavanone-derived metabolites after single intake of lemon or orange extract (UPLC-ESI-QTOF-MS); format: in vivo, human; details: for Urinary excretion F1: urine fraction 0-4 h; for Urinary excretion F1 / Urinary excretion Total F / Urinary excretion F2 / Urinary excretion F3 / Urinary excretion F4: mean ± SD; for Urinary excretion Total F: sum of fractions F1-F4 (24 h); for Urinary excretion F2: urine fraction 4-8 h; for Urinary excretion F3: urine fraction 8-10 h; for Urinary excretion F4: urine fraction 10-24 h; for Occurrence Urine LE (number of volunteers in whom the metabolite was detected): after consuming lemon extract; for Occurrence Urine LE (number of volunteers in whom the metabolite was detected) / Occurrence Urine OE (number of volunteers in whom the metabolite was detected): n = 16 volunteers; for Occurrence Urine OE (number of volunteers in whom the metabolite was detected): after consuming orange extract
Description: Secondary endpoints involved the evaluation of post-prandial changes in several biomarkers dealing with metabolism, inflammation, and oxidative stress after a high-fat-high-sugars meal. The design was a randomized pharmacokinetic, double-blind, crossover, single-dose trial consisted of 2 test-phases. The volunteers were randomly allocated into two groups using a computerized random number list. Each group consumed one of the citrus extracts by following a test-phase that lasted for 1 day for blood sampling and urine collection, a 2-week washout period between each test phase, and crossover before consuming the other extract. The volunteers were instructed to avoid the consumption of flavanone-containing products, from a list provided by the researchers, for 1 week before the study and during the wash-out phase (citrus fruit juices, tomatoes, tomato-based sauces (like ‘ketchup’), peppers, almonds, etc.). […] The 3 capsules provided a total of 1.95 g orange extract, containing 260 mg hesperidin, and 3.1 g lemon extract, containing 260 mg eriocitrin. […] Untreated urine samples were aliquoted and frozen at −80 °C for up to 4 weeks until analyses, avoiding freeze-thaw cycles to avoid metabolites’ deconjugation. Moreover, three measurements of blood pressure and heart rate were taken before each time-point of blood withdrawal. […] A previously validated method for analyzing phenolic metabolites in biological samples, including flavanone-derived metabolites, was used. […] After centrifugation at 14,000× g for 10 min at 4 °C, the supernatant was evaporated in a speed vacuum concentrator. Finally, samples were re-suspended in 100 µL of methanol, filtered through a 0.22 µm cellulose filters before analysis by UPLC- ESI-QTOF-MS. […] A targeted screening strategy was applied to identify metabolites that could be present after consuming the citrus extracts. Twenty-eight possible compounds were browsed in all the samples. The list of compounds included the polyphenols present in the extracts, with particular focus on the flavanone rutinosides hesperidin and eriocitrin, their respective aglycones hesperetin, and eriodictyol, as well as their derived phase-II conjugates (glucuronides, sulfates, sulfoglucuronides, etc.). The exact mass of each proposed compound was extracted using an extraction window of 0.01 m/z. The metabolites hesperetin 7-O-glucuronide, hesperetin 3′-O-glucuronide, hesperetin 3-O-sulfate, naringenin 4′-O-glucuronide, and naringenin 7′-O-glucuronide were quantified with their corresponding standards. […] The parent phenolic compounds were quantified with their corresponding standards. In the case of some relevant conjugated metabolites, which standards were not available (eriodictyol and homoeriodictyol conjugates), their quantification was achieved by using relative response factors (RRFs) as previously described. Briefly, RRFs are useful to check the different responses of metabolites in the mass spectrometer vs. their UV signal. While the ionization response of free vs. conjugated forms is usually very different, their UV signal response is quite similar. To this purpose, we injected in a HPLC-DAD-ESI-Q (MS) the plasma samples (n = 5) with the highest concentrations of those conjugated metabolites. Concentrations were calculated by integrating the area from their corresponding UV peaks and compared with the UV peak area of a known concentration of their corresponding available parent compounds (eriodictyol and homoeriodictyol). The concentrations calculated were used to compare the MS response for each conjugated-aglycone pair.

[2] = Plasma metabolites and pharmacokinetics after single intake of lemon or orange extract (UPLC-ESI-QTOF-MS, non-compartmental analysis); format: in vivo, human; details: for Occurrence Plasma LE (number of volunteers in whom the metabolite was detected): after consuming lemon extract; for Occurrence Plasma LE (number of volunteers in whom the metabolite was detected) / Occurrence Plasma OE (number of volunteers in whom the metabolite was detected): n = 16 volunteers; for Occurrence Plasma OE (number of volunteers in whom the metabolite was detected): after consuming orange extract; for Tmax / Cmax / AUC(0-t): mean ± SD; for AUC(0-t): read-out: AUC0-t
Description: Secondary endpoints involved the evaluation of post-prandial changes in several biomarkers dealing with metabolism, inflammation, and oxidative stress after a high-fat-high-sugars meal. The design was a randomized pharmacokinetic, double-blind, crossover, single-dose trial consisted of 2 test-phases. The volunteers were randomly allocated into two groups using a computerized random number list. Each group consumed one of the citrus extracts by following a test-phase that lasted for 1 day for blood sampling and urine collection, a 2-week washout period between each test phase, and crossover before consuming the other extract. The volunteers were instructed to avoid the consumption of flavanone-containing products, from a list provided by the researchers, for 1 week before the study and during the wash-out phase (citrus fruit juices, tomatoes, tomato-based sauces (like ‘ketchup’), peppers, almonds, etc.). […] The 3 capsules provided a total of 1.95 g orange extract, containing 260 mg hesperidin, and 3.1 g lemon extract, containing 260 mg eriocitrin. […] Plasma samples were obtained by centrifugation of peripheral venous blood at 14,000× g for 15 min at 4 °C and immediately frozen at −80 °C. Glucose, total cholesterol, HDL-cholesterol, LDL-cholesterol, triglycerides, insulin, homeostatic model assessment insulin resistance (HOMA-IR), gamma-glutamyl transferase (GGT), and alanine aminotransferase (ALT) were determined as previously reported. […] A previously validated method for analyzing phenolic metabolites in biological samples, including flavanone-derived metabolites, was used. […] After centrifugation at 14,000× g for 10 min at 4 °C, the supernatant was evaporated in a speed vacuum concentrator. Finally, samples were re-suspended in 100 µL of methanol, filtered through a 0.22 µm cellulose filters before analysis by UPLC- ESI-QTOF-MS. A targeted screening strategy was applied to identify metabolites that could be present after consuming the citrus extracts. Twenty-eight possible compounds were browsed in all the samples. The list of compounds included the polyphenols present in the extracts, with particular focus on the flavanone rutinosides hesperidin and eriocitrin, their respective aglycones hesperetin, and eriodictyol, as well as their derived phase-II conjugates (glucuronides, sulfates, sulfoglucuronides, etc.). The exact mass of each proposed compound was extracted using an extraction window of 0.01 m/z. The metabolites hesperetin 7-O-glucuronide, hesperetin 3′-O-glucuronide, hesperetin 3-O-sulfate, naringenin 4′-O-glucuronide, and naringenin 7′-O-glucuronide were quantified with their corresponding standards. […] The parent phenolic compounds were quantified with their corresponding standards. In the case of some relevant conjugated metabolites, which standards were not available (eriodictyol and homoeriodictyol conjugates), their quantification was achieved by using relative response factors (RRFs) as previously described. Briefly, RRFs are useful to check the different responses of metabolites in the mass spectrometer vs. their UV signal. While the ionization response of free vs. conjugated forms is usually very different, their UV signal response is quite similar. To this purpose, we injected in a HPLC-DAD-ESI-Q (MS) the plasma samples (n = 5) with the highest concentrations of those conjugated metabolites. Concentrations were calculated by integrating the area from their corresponding UV peaks and compared with the UV peak area of a known concentration of their corresponding available parent compounds (eriodictyol and homoeriodictyol). The concentrations calculated were used to compare the MS response for each conjugated-aglycone pair. Statistical analyses were carried out using the SPSS Software, version 23.0 (SPSS Inc., Chicago, IL, USA). Data are expressed as mean ± SD. The empirical distribution of data with the normality assumption was tested with the Shapiro-Wilk test. […]

[3] = lemon extract (3.1 g, 260 mg eriocitrin)
[4] = human, oral, 3.1 g, after lemon extract
[5] = human, oral, 3.1 g, after lemon extract, read-out: Tmax
[6] = orange extract (1.95 g, 260 mg hesperidin)
[7] = human, oral, 1.95 g, after orange (hesperidin) extract

## O=C1CC(c2ccc(O)c(O)c2)Oc2cc(OC3OC(C(=O)O)C(O)C(O)C3O)cc(O)c21 (stereo not drawn) [M1, Eriodictyol glucuronide-1]
[1]; [3]
  Urinary excretion F1: 3.2 ± 5.9 µg/mg creatinine
[1]; lemon extract
  Urinary excretion Total F: 18.0 ± 28.4 µg/mg creatinine
  Urinary excretion F2: 9.6 ± 15.5 µg/mg creatinine
  Urinary excretion F3: 4.5 ± 6.2 µg/mg creatinine
  Urinary excretion F4: 0.7 ± 0.7 µg/mg creatinine
[1]; orange extract
  Urinary excretion Total F: 0.6 ± 0.4 µg/mg creatinine
  Urinary excretion F2: 0.4 ± 0.3 µg/mg creatinine
  Urinary excretion F3: 0.1 ± 0.1 µg/mg creatinine
  Urinary excretion F4: 0.05 ± 0.05 µg/mg creatinine
[1]
  Occurrence Urine LE (number of volunteers in whom the metabolite was detected): 16
  Occurrence Urine OE (number of volunteers in whom the metabolite was detected): 5
[2]
  Occurrence Plasma LE (number of volunteers in whom the metabolite was detected): 16
  Occurrence Plasma OE (number of volunteers in whom the metabolite was detected): 3
[2]; after lemon extract
  Tmax: 5.9 ± 2.4 h
[2]; [4]
  Cmax: 104 ± 85.8 nM
  AUC(0-t): 0.283 ± 0.271 µM·h
[2]; [5]
  Tmax: 6 h

## O=C1CC(c2ccc(O)c(OC3OC(C(=O)O)C(O)C(O)C3O)c2)Oc2cc(O)cc(O)c21 (stereo not drawn) [M2, Eriodictyol glucuronide-2]
[1]; [3]
  Urinary excretion F1: 6.4 ± 11.0 µg/mg creatinine
[1]; lemon extract
  Urinary excretion Total F: 46.6 ± 53.6 µg/mg creatinine
  Urinary excretion F2: 18.0 ± 17.2 µg/mg creatinine
  Urinary excretion F3: 18.1 ± 19.7 µg/mg creatinine
  Urinary excretion F4: 4.2 ± 5.7 µg/mg creatinine
[1]; [6]
  Urinary excretion F1: 0.1 ± 0.1 µg/mg creatinine
[1]; orange extract
  Urinary excretion Total F: 2.5 ± 4.9 µg/mg creatinine
  Urinary excretion F2: 0.5 ± 0.8 µg/mg creatinine
  Urinary excretion F3: 0.5 ± 0.6 µg/mg creatinine
  Urinary excretion F4: 1.4 ± 3.4 µg/mg creatinine
[1]
  Occurrence Urine LE (number of volunteers in whom the metabolite was detected): 16
  Occurrence Urine OE (number of volunteers in whom the metabolite was detected): 10
[2]
  Occurrence Plasma LE (number of volunteers in whom the metabolite was detected): 16
  Occurrence Plasma OE (number of volunteers in whom the metabolite was detected): 7
[2]; after lemon extract
  Tmax: 5.9 ± 2.4 h
[2]; [4]
  Cmax: 871 ± 868 nM
  AUC(0-t): 3.22 ± 4.12 µM·h
[2]; [5]
  Tmax: 6 h

## O=C1CC(c2ccc(O)cc2)Oc2cc(OC3OC(C(=O)O)C(O)C(O)C3O)cc(O)c21 (stereo not drawn) [M3, Naringenin 7-O-glucuronide]
[1]; [3]
  Urinary excretion F1: 1.0 ± 0.7 µg/mg creatinine
[1]; lemon extract
  Urinary excretion Total F: 5.7 ± 6.9 µg/mg creatinine
  Urinary excretion F2: 2.6 ± 4.0 µg/mg creatinine
  Urinary excretion F3: 1.7 ± 1.9 µg/mg creatinine
  Urinary excretion F4: 0.3 ± 0.3 µg/mg creatinine
[1]; [6]
  Urinary excretion F1: 0.1 ± 0.1 µg/mg creatinine
[1]; orange extract
  Urinary excretion Total F: 0.7 ± 1.5 µg/mg creatinine
  Urinary excretion F2: 0.2 ± 0.6 µg/mg creatinine
  Urinary excretion F3: 0.2 ± 0.2 µg/mg creatinine
  Urinary excretion F4: 0.2 ± 0.3 µg/mg creatinine
[1]
  Occurrence Urine LE (number of volunteers in whom the metabolite was detected): 16
  Occurrence Urine OE (number of volunteers in whom the metabolite was detected): 16
[2]
  Occurrence Plasma LE (number of volunteers in whom the metabolite was detected): 16
  Occurrence Plasma OE (number of volunteers in whom the metabolite was detected): 14
[2]; after lemon extract
  Tmax: 5.4 ± 2.5 h
[2]; after orange (hesperidin) extract
  Tmax: 7.3 ± 2.2 h
[2]; [7]
  Cmax: 4.7 ± 3.6 nM
  AUC(0-t): 0.0188 ± 0.019 µM·h
[2]; human, oral, 1.95 g, after orange (hesperidin) extract, read-out: Tmax
  Tmax: 7.5 h
[2]; [4]
  Cmax: 56.7 ± 44.2 nM
  AUC(0-t): 0.203 ± 0.187 µM·h
[2]; [5]
  Tmax: 5.5 h

## O=C1CC(c2ccc(OC3OC(C(=O)O)C(O)C(O)C3O)c(O)c2)Oc2cc(O)cc(O)c21 (stereo not drawn) [M4, Eriodictyol glucuronide-3]
[1]; [3]
  Urinary excretion F1: 9.4 ± 16.9 µg/mg creatinine
[1]; lemon extract
  Urinary excretion Total F: 75.1 ± 128 µg/mg creatinine
  Urinary excretion F2: 33.8 ± 64.1 µg/mg creatinine
  Urinary excretion F3: 27.7 ± 40.1 µg/mg creatinine
  Urinary excretion F4: 4.3 ± 6.4 µg/mg creatinine
[1]; [6]
  Urinary excretion F1: 0.1 ± 0.2 µg/mg creatinine
[1]; orange extract
  Urinary excretion Total F: 3.4 ± 6.2 µg/mg creatinine
  Urinary excretion F2: 0.5 ± 0.9 µg/mg creatinine
  Urinary excretion F3: 0.7 ± 0.7 µg/mg creatinine
  Urinary excretion F4: 2.1 ± 4.5 µg/mg creatinine
[1]
  Occurrence Urine LE (number of volunteers in whom the metabolite was detected): 16
  Occurrence Urine OE (number of volunteers in whom the metabolite was detected): 11
[2]
  Occurrence Plasma LE (number of volunteers in whom the metabolite was detected): 16
  Occurrence Plasma OE (number of volunteers in whom the metabolite was detected): 7
[2]; after lemon extract
  Tmax: 5.9 ± 2.6 h
[2]; [4]
  Cmax: 639 ± 802 nM
  AUC(0-t): 2.29 ± 3.49 µM·h
[2]; [5]
  Tmax: 6 h
